Test system: Tenebrio molitor
Experiment: Antifeedant activity against third-instar larvae Tenebrio molitor in compound treated carrot slices assessed as feeding inhibition at 100 ppm
Type: functional
Settings: in Daucus carota

Row | Structure (SMILES) | inhibition at 100 ppm
1 | CC1=C(C)C(=O)OC(C2CO[C@@]3(O)C[C@H]4[C@@H](C[C@@H](O)[C@@]5(O)CC=CC(=O)[C@]45C)[C@@H]4CC[C@]2(O)C43)C1 (stereo not given in full) | 31.6%
2 | C[C@H](c1ccc2c(c1)CC[C@H]1[C@H]2C[C@@H]2O[C@@]23CC=CC(=O)[C@]13C)[C@@H]1C[C@@]2(C)O[C@@]2(C)[C@@H](O)O1 | 29.9%
3 | CC(=O)O[C@H](C[C@@]1(C)[C@H](C)CC[C@]2(C)[C@H]1CCC[C@@]21CO1)/C(=C/CO)CO | 51.9%
4 | C=C1CCC[C@H]2[C@@](C)(C/C=C(/CO)CCO)[C@H](C)CC[C@@]12C | 57.3%
5 | CC(=O)OC[C@@]12[C@@H](OC(C)=O)C[C@@H](C)[C@]3(C[C@H](c4ccoc4)OC3=O)[C@H]1CCCC2(O)O | 45%
6 | CC(=O)OC[C@@]12[C@@H](OC(C)=O)C[C@@H](C)[C@]3(C[C@H](c4ccoc4)OC3=O)[C@H]1CCC[C@@H]2C=O | 41%
7 | COC1C=C([C@H]2C[C@@]3(C(=O)O2)[C@H](C)C[C@H](OC(C)=O)[C@]2(COC(C)=O)[C@@H]3CCC[C@]23CO3)C(OC)O1 (stereo not given in full) | 47.3%
8 | CC(=O)OC[C@@]12[C@@H](OC(C)=O)C[C@@H](C)[C@]3(C[C@H](c4ccoc4)OC3=O)[C@H]1CC[C@H](OC(C)=O)[C@]21CO1 | 30.6%
9 | CC1=CC2C[C@@H]3[C@@]1(CC[C@H](C)[C@@]31C[C@@H](c3ccoc3)OC1=O)C(=O)O2 | 62.7%
10 | C[C@H]1CC[C@@]23C(=O)OC(C[C@H]2[C@]12C[C@@H](c1ccoc1)OC2=O)[C@H]1O[C@]13C | 57.9%
11 | C[C@]12C[C@H](c3ccoc3)OC(=O)[C@H]1CC[C@@]13COC(=O)[C@H]1C=CC[C@@H]23 | 47.3%
12 | C[C@]12C[C@H](C3CCOC3)OC(=O)[C@@H]1CC[C@@]13COC(=O)[C@H]1CCC[C@@H]23 (stereo not given in full) | 49.4%
13 | C[C@]12C[C@H](c3ccoc3)OC[C@@H]1CC[C@@]13COC(=O)[C@H]1CCC[C@@H]23 | 46%
14 | C[C@]12C[C@H](c3ccoc3)OC(=O)[C@@H]1[C@H](O)C[C@@]13COC(=O)C1=CCC[C@H]32 | 26.6%
15 | C[C@]12C[C@H](c3ccoc3)OC(=O)[C@@H]1CC[C@@]13COC(=O)C1=CCC[C@H]32 | 22.6%
16 | C[C@@H]1CC[C@@]2(CO)C(CO)=CCC[C@H]2[C@@]1(C)CCc1ccoc1 | 48.7%
17 | CC(=O)OC[C@@]12[C@@H](OC(C)=O)C[C@@H](C)[C@](C)(CC(=O)c3ccoc3)[C@@H]1CCC[C@]21CO1 | 58%
18 | CC(=O)OC[C@@]12[C@@H](OC(C)=O)C[C@@H](C)[C@](C)(C[C@H](OC(C)=O)c3ccoc3)[C@@H]1CCC[C@]21CO1 | 31.4%
19 | C[C@@H]1[C@H](O)C[C@@]23COC(=O)[C@H]2CC[C@H](O)[C@H]3[C@@]1(C)CCC1CCOC1 (stereo not given in full) | 48.4%
20 | C[C@@H]1CC[C@@]23COC(=O)C2=CCC[C@H]3[C@@]1(C)CCC1COC(=O)C1 (stereo not given in full) | 62.6%
21 | C[C@@H]1[C@H](O)C[C@@]23COC(=O)C2=CC[C@H](O)[C@H]3[C@@]1(C)CCc1ccoc1 | 31.3%
22 | C[C@@H]1CC[C@@]23COC(=O)C2=CCC[C@H]3[C@@]1(C)CCc1ccoc1 | 31%
23 | C/C=C(\C)C(=O)O[C@H]1C[C@@H](OC(C)=O)[C@@]2(C(=O)OC)CO[C@H]3[C@@H](O)[C@@](C)([C@]45O[C@@]4(C)[C@@H]4C[C@H]5O[C@@H]5OC=C[C@@]54O)[C@H]4[C@]1(CO[C@]4(O)C(=O)OC)[C@@H]32 [AZADIRACHTIN A] | 29.6%
24 | CC(=O)OC[C@@]12[C@@H](OC(C)=O)C[C@@H](C)[C@]3(C[C@H](c4ccoc4)OC3=O)[C@H]1CCC[C@]21CO1 [MONTANIN C] | 25%
25 | CC1=C(C)[C@H]([C@H]2O[C@@]3(O)C[C@H]4[C@@H](C[C@H]5O[C@]56CC=CC(=O)[C@]46C)[C@@H]4CC[C@@](O)([C@@H]2C)[C@]43C)OC1=O [TRECHONOLIDE A] | 44.7%
